According to US20230302036A1, “COMPOSITIONS FOR TREATMENT OF SPINAL MUSCULAR ATROPHY” (priority 2020, published 2023):

Tested on: SMA mice (Smn-/-; SMN2 2TG/0)
Assay: Growth curves (body weight gain) of severe SMA mice
Assay type: in vivo, mouse
Settings: ASO1 at P0 and P1 and/or VPA 10 µg/g s.c.
Description: Kaplan-Meier survival plot (FIG. 4A) and growth curves (FIG. 4B) of SMA mice, following subcutaneous administration at P0 and P1 of 16.8 µg ASO1 (n=18) or saline (n=14), one subcutaneous dose before P3 of 10 µg per g of body weight VPA (n=12), or both treatments together (n=20). ASO1-treated Smn^+/- heterozygote littermates (n=15) served as controls. Scramble (Ctrl) (n=12, 40 trials), VPA (n=13, 50 trials), ASO1 (n=11, 50 trials), ASO1 + VPA (n=17, 68 trials), and untreated heterozygotes (n=12, 36 trials). Statistical significance was analyzed by two-way repeated measures ANOVA. P < 0.05 was considered statistically significant; data are represented as mean + SD. In the righting-reflex test, the time it took a mouse to right itself […] on a flat surface was measured. In the grip-strength test, the angle at which the pups fell from a tablet with a rough to which they held on by their forelimbs was measured.
FIGS. 7A-H show ASO1 and TSA combined treatment in mice. Kaplan-Meier survival plot (FIG. 7A) and growth curves (FIG. 7B) of SMA mice after subcutaneous administration at P0 and P1 of 16.8 µg ASO1 (n=20) or vehicle (n=12), one subcutaneous dose of 10 µg per g of body weight TSA (n=15) at P2, or both treatments together (n=24), are shown. ASO1-treated heterozygotes (n=18) served as controls. Statistical significance was analyzed by two-way repeated measures ANOVA. […]

CCCC(CCC)C(=O)O [VPA, valproic acid]
body weight gain in the surviving mice: lack of an effect per se
